Test results as given in patent US5646156A, “Inhibition of eosinophil activation through A3 adenosine receptor antagonism” (Merck & Co., Inc., priority 1994, dated 1997).
Several values for one entry are separate records, joined by “and”; a condition that tells them apart may be missing. Identical values can stand only once. Entries after “also recorded” stand apart in the source; their conditions may differ. Like-named read-outs stand apart in the source and are kept apart here.

Legend:
[1] = biological target: T1, human A3 adenosine receptor (Homo sapiens, UniProt P0DMS8); assay: Saturation binding of 125I-ABA to membranes of CHO cells stably expressing HS-21a (human A3 adenosine receptor); settings: for prevention of specific binding of 125I-ABA: 1 mM nonradioactive I-ABA (so in the source) or 400 μM NECA
T1 construct: clone HS-21a contained the complete open reading frame corresponding to the human homolog of the rat A3 adenosine receptor; expressed in transfected cells; host or cells: CHO cells, stably transfected (pCMV5-A3; pSVL and pREP vectors are also described)
T1 sequence (P0DMS8 1-318): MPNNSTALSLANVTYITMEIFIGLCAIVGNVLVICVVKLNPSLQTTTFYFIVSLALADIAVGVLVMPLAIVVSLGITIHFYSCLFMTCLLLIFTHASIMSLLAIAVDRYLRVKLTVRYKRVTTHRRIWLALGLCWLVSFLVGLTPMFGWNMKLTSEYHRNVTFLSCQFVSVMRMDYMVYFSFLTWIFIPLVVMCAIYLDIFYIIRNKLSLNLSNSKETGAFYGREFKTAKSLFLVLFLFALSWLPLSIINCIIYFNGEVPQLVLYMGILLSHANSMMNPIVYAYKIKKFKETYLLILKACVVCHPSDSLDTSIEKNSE

[2] = Radioligand binding to membranes from CHO cells (non-transfected / non-specific)
[3] = tested on: rat A3 adenosine receptor; settings: reported in literature; cited from earlier work
[4] = tested on: human adenosine receptors (all subtypes); settings: cited from earlier work
[5] = biological target: T1, human A3 adenosine receptor; assay: Inhibition of forskolin-stimulated cAMP accumulation, CHO cells stably expressing HS-21a (human A3 adenosine receptor); assay type: cell-based
Procedure: (§1) Determinations were made on stably transfected CHO cells in suspension as described (Linden et al., (1993) Mol. Pharm. 44:524-532). Supernatants (500 μL) were acetylated and acetylcyclic AMP was measured by automated radioimmunoassay (Hamilton, B. R. and Smith, D. O. (1991) J. Physiol. (Lond.) 432, 327-341). Antagonist dissociation constants were estimated from pA2 values as described by Schild (1957) Pharm. Rev. 9, 242-246).
(§2) The ability of the HS-21a receptor stably expressed in CHO cells to couple to the cAMP regulatory system was measured using adenosine as an agonist. […] In the absence of forskolin, adenosine had no effect on the cAMP levels. In non-transfected CHO cells, adenosine had no effect on cAMP levels when measured with or without forskolin treatment.

[6] = tested on: sheep A3 adenosine receptor; settings: CHO cells; cited from earlier work
[7] = biological target: T1, human A3 adenosine receptor; assay: Competition binding vs 125I-ABA, membranes of CHO cells stably expressing HS-21a (human A3 adenosine receptor); settings: for Ki: competition with 125I-ABA, CHO membranes, human A3
Procedure: Pellets were resuspended in 5 mM Hepes, pH 7.4/5 mM MgCl2 /0.1 mM benzamidine/0.1 mM PMSF at a protein concentration of 1-2 mg/mL and were incubated with adenosine deaminase (Boehringer Mannheim), 2 U/mL at 37° C. for 20 minutes. […] The assay was terminated by rapid filtration and three washes with ice-cold binding buffer on a Skatron harvester equipped with a receptor binding filtermat (Skatron Instruments, INC). […] Nonspecific binding was measured in the presence of 1 μM I-ABA. […] Binding data were analyzed and competition curves were constructed by use of the nonlinear regression curve fitting program Graph PAD InPlot, Version 3.0 (Graph Pad Software, San Diego).

[8] = biological target: T1, human A3 adenosine receptor; settings: potencies disclosed by Salvatore et al.; cited from earlier work
[9] = biological target: T1, human A3 adenosine receptor; settings: antagonist potency in cAMP assay; disclosed by Salvatore et al.; cited from earlier work
[10] = tested on: non-transfected CHO cells; assay: cAMP levels in non-transfected CHO cells; assay type: cell-based; settings: with or without forskolin
Procedure: as §1, §2

eosinophils = assay: Induction of eosinophil activation in animals; settings: in vivo
asthmatics = settings: cited from earlier work; for bronchoconstriction in asthmatics: not nonasthmatics
activated mast cells = settings: cited from earlier work
[11] = tested on: A3 adenosine receptor transcript, human eosinophils; assay: A3 adenosine receptor transcript expression (RT-PCR) in GM-CSF stimulated eosinophils; assay type: cell-based; settings: GM-CSF (150 pM, 16 hours)
Procedure: (§3) Eosinophils and neutrophils (80-99% purity) were purified from human peripheral blood by an immunomagnetic procedure described by Hansel et al. (1991) J. Immunol. Methods 145: 105-110. Isolated cells (2-2.6×10^6 cells/mL) were cultured in the presence of 150 pM human recombinant granulocyte-macrophage colony stimulating factor, GM-CSF (Calbiochem, San Diego, Calif.) for 16 hours in RPMI with 10% fetal calf serum, at 37° C. in 5% CO2. Total RNA was extracted by the guanidinium isothiocyanate method (Chirgwin, J. M., et al, (1979) Biochemistry 18:5294-5299) from approximately 1.3×10^7 human eosinophils (+) or (-) GM-CSF stimulation. […]
(§4) Human adenosine receptor subtype transcript expression was determined using the polymerase chain reaction (PCR). […]
(§5) Ten μl of each PCR amplification reaction was elecrophoresed on a 1.4% agarose gel and alkaline blotted to Zeta-Probe GT membranes according to the manufacturer's protocol (BIO-RAD, Hercules, Calif.). […] The presence of A2a, A2b and A3 receptor PCR products were detected from normal and GM-CSF treated eosinophils.
(§6) PCR reaction products were quantitated using a Molecular Dynamics Phosphorimager and ImageQuant software. […] Quantitation of GAPDH was used to correct message level differences in the (+) or (-) GM-CSF stimulated human eosinophils. […]

[12] = tested on: A2b adenosine receptor transcript, human eosinophils; assay: A2b adenosine receptor transcript expression (RT-PCR) in GM-CSF stimulated eosinophils; assay type: cell-based; settings: GM-CSF (150 pM, 16 hours)
Procedure: as §3, §4, §5, §6

[13] = tested on: A2a adenosine receptor transcript, human eosinophils; assay: A2a adenosine receptor transcript expression (RT-PCR) in GM-CSF stimulated eosinophils; assay type: cell-based
Procedure: as §3, §4, §5, §6

[14] = tested on: A1 adenosine receptor transcript, human eosinophils; assay: A1 adenosine receptor transcript expression (RT-PCR) in GM-CSF stimulated eosinophils; assay type: cell-based
Procedure: as §3, §4, §5, §6

[15] = tested on: cytokine activated eosinophils; assay: Treatment of cytokine activated eosinophils (hypersensitivity to adenosine, degranulation, effector function); assay type: cell-based
[16] = biological target: sheep A3 adenosine receptor; settings: cited from earlier work
[17] = 125I-ABA, HS-21a stable CHO cell membranes

Compound: Nc1ccc(CNc2ncnc3c2ncn3[C@@H]2O[C@H](CO)[C@@H](O)[C@H]2O)cc1[125I] [^125 I-ABA, N^6-(4-amino-3-^125 iodobenzyl)adenosine]
- Bmax [1, 17]: 258 fmol/mg protein
- Hill coefficient [1, 17]: 0.99
- Kd ([1]; 125I-ABA, HS-21a stable CHO cell membranes, read-out: dissociation constant): 0.01 µM
- specific binding to non-transfected CHO cell membranes ([2]; 125I-ABA): No specific binding

Compound: CCNC(=O)[C@H]1O[C@@H](n2cnc3c(N)ncnc32)[C@H](O)[C@@H]1O [NECA, N-ethylcarboxamidoadenosine]
- prevention of specific binding of 125I-ABA [1]: prevented

Compound: Nc1nc2c(ncn2[C@@H]2O[C@H](COP(=O)(O)OP(=O)(O)OP(O)(O)=S)[C@@H](O)[C@H]2O)c(=O)[nH]1 [GTPγS, guanosine 5'-O-3-thiotriphosphate]
- inhibition at 10 µM ([1]; read-out: reduction of specific binding of 125I-ABA): 56%

Compound: CCCn1c(=O)c2[nH]c(C3CCCC3)nc2n(CCC)c1=O [DPCPX, 1,3-dipropyl-8-cyclopentylxanthine]
- binding to rat A3 receptor [3]: not to bind
- blockade of human adenosine receptor subtypes [4]: blocked

Compound: Nc1ccc(CNc2ncnc3c2ncn3[C@@H]2O[C@H](CO)[C@@H](O)[C@H]2O)cc1I [I-ABA]
- prevention of specific binding of 125I-ABA [1]: prevented
- inhibition of forskolin-stimulated cyclic AMP accumulation compared with NECA and other agonists (PIA and CPA) ([5]; CHO cells, human A3): only about half as much inhibition
- agonist type for lowering cyclic AMP ([5]; CHO cells, human receptor): partial agonist
- shift of NECA dose response curve to lower cyclic AMP ([5]; NECA in presence of I-ABA): fight-shifted
- agonist type for lowering cyclic AMP [6]: full

Compound: Nc1ccc(CCNc2ncnc3c2ncn3[C@@H]2O[C@H](CO)[C@@H](O)[C@H]2O)cc1[125I] [^125 I-APNEA, N^6-2-(4-amino-3-^125 iodophenyl)ethyladenosine]
- non-specific binding to CHO cell membranes ([2]; 125I-APNEA, preliminary experiments): high non-specific

Compound: CCCn1c(=O)c2[nH]c(-c3ccc(C=CC(=O)O)cc3)nc2n(CCC)c1=O [BW-A1433, 1,3-dipropyl-8-(4-acrylate)phenylxanthine]
- Ki [7]: 0.055 µM
- BINDING pKi [8]: 7.26
- cAMP pKi [9]: 7.0
- blockade of human adenosine receptor subtypes [4]: blocked

Compound: Nc1ncnc2c1ncn2[C@@H]1O[C@H](CO)[C@@H](O)[C@H]1O [adenosine]
- inhibition at 10 µM ([5]; CHO, read-out: inhibition of forskolin-stimulated increase in cAMP): 30%
- effect on cAMP levels in absence of forskolin ([5]; HS-21a CHO cells, no forskolin): no effect
- effect on cAMP levels in non-transfected CHO cells [10]: no effect
- eosinophil activation in animals (eosinophils): induce eosinophil activation
- bronchoconstriction in asthmatics (asthmatics; listed as Adenosine): induces bronchoconstriction in asthmatics but not in normal individuals; also recorded: produces bronchoconstriction in asthmatics but not in nonasthmatics
- bronchoconstriction in asthmatics (asthmatics): produces bronchoconstriction
- release of histamine from activated mast cells (activated mast cells): potentiate

Compound: CCCn1c(=O)c2[nH]c(-c3ccc(OCC(=O)NCCN)cc3)nc2n(CCC)c1=O [XAC, xanthine amine cogener]
- binding to rat A3 receptor [3]: not to bind
- blockade of human adenosine receptor subtypes [4]: blocked

Compound: GM-CSF: human recombinant granulocyte-macrophage colony stimulating factor, GM-CSF (Calbiochem, San Diego, Calif.)
- up-regulation of A3 transcripts [11]: ~10 fold
- up-regulation of A2b transcripts [12]: ~3 fold and 3 to 4 fold
- A2a transcript / message level change [13]: no change; also recorded: remained unchanged
- A1 transcript expression [14]: no A1 products were observed; also recorded: remained unchanged

Compound: Cn1c(=O)c2[nH]cnc2n(C)c1=O [theophylline]
- antagonism of adenosine-induced bronchoconstriction (asthmatics): antagonized

Compound: CCCn1c(=O)c2[nH]c(-c3ccc(OCC(=O)O)cc3)nc2n(Cc2ccc(N)c(I)c2)c1=O [I-ABOPX, 3-(3-iodo-4-aminobenzyl)-8-(4-oxyacetate)phenyl-1-propylxanthine]
- Ki [7]: 0.018 µM
- affinity for human A3 receptor ([7]; in words): highest affinity antagonist yet reported for A3 adenosine receptors
- hypersensitivity to adenosine, eosinophil degranulation and effector function [15]: blockade of this hypersensitivity and inhibition of eosinophil degranulation and effector function
- cAMP pKi [9]: 8.13
- Ki [16]: 0.002 µM
